Consider 6 molecules from patent publication US4436733A, “4"- And 3-ester derivatives of DMT and DMOT” (Eli Lilly and Company, priority 1982, dated 1984).

One assay relates to Mycoplasma hyorhinis. Briefly: conventional broth-dilution microtiter test, MIC. The format is cell-based. As to the method:
(§1) The MIC's in Table III were determined by standard agar-dilutionassays. The MIC's in Table IV were obtained using a conventional broth-dilution microtiter test.

A further assay deals with Staphylococcus aureus. Description: conventional broth-dilution microtiter test, MIC. The format is cell-based. As to the method: as §1
Another assay concerns Streptococcus sp. 80. Description: conventional broth-dilution microtiter test, MIC. The format is cell-based. As to the method:
as §1

For another assay, the system named is Mycoplasma gallisepticum. Description: conventional broth-dilution microtiter test, MIC. The format is cell-based. On the procedure: as §1
Assay [1] deals with Pasteurella multocida 17E. Briefly: conventional broth-dilution microtiter test, MIC. The format is cell-based. The settings on record: bovine isolate. On the procedure: as §1
Assay [2] concerns Pasteurella multocida 60A. Briefly: conventional broth-dilution microtiter test, MIC. The format is cell-based. To be noted: avian isolate. As to the method:
as §1

Another assay relates to Mycoplasma synoviae. Briefly: conventional broth-dilution microtiter test, MIC. The format is cell-based. On the procedure: as §1
For assay [3], the system named is Streptococcus Group D X66. Description: standard agar-dilution assay, MIC. The format is cell-based. On the procedure: as §1
Assay [4] has as its system Staphylococcus aureus X1.1. Briefly: standard agar-dilution assay, MIC. The format is cell-based. As to the method: as §1
The subject of another assay is Streptococcus Group 9960. Briefly: standard agar-dilution assay, MIC. The format is cell-based. As to the method:
as §1

In assay [5] the test system is Staphylococcus epidermidis EPI2. Description: standard agar-dilution assay, MIC. The format is cell-based. On the procedure:
as §1

The subject of assay [6] is Staphylococcus epidermidis EPI1. Description: standard agar-dilution assay, MIC. The format is cell-based. On the procedure: as §1
The subject of assay [7] is Streptococcus pyogenes C203. Description: standard agar-dilution assay, MIC. The format is cell-based. As to the method:
as §1

In assay [8] the test system is Streptococcus pneumoniae Park I. Description: standard agar-dilution assay, MIC. The format is cell-based. As to the method:
as §1

The test system of assay [9] is Staphylococcus aureus S13E. Briefly: standard agar-dilution assay, MIC. The format is cell-based. As to the method: as §1
The subject of assay [10] is Staphylococcus aureus X400. Briefly: standard agar-dilution assay, MIC. The format is cell-based. To be noted: Staphylococcus aureus X400, methicillin resistant strain. On the procedure:
as §1
^c Methicillinresistant-strain

Assay [11] has as its system Haemophilus influenzae R252. Briefly: standard agar-dilution assay, MIC. The format is cell-based. The settings on record: Haemophilus influenzae R252, ampicillin resistant strain. On the procedure: as §1
^e Ampicillinresistant strain

Assay [12] has as its system Haemophilus influenzae Holt. Briefly: standard agar-dilution assay, MIC. The format is cell-based. The settings on record: ampicillin sensitive strain. On the procedure: as §1
^d Ampicillinsensitive strain

Assay [13] concerns Streptococcus pyogenes C203. Description: experimental bacterial infection in mice, ED50. The format is in vivo. The settings on record: C203, mice, oral, doses given 1 and 5 hours postinfection, read-out: ED50 (effective dose to protect 50% of the test animals). On the procedure: The ester derivatives of this invention have shown in vivo antimicrobial activity against experimental bacterial infections caused by gram-positivebacteria. When two doses of test compound were administered to mice with experimental infections, the activity observed was measured as an ED50 value [effective dose in mg/kg to protect 50% of the test animals: see Warren Wick, et al., J. Bacteriol. 81, 233-235 (1961)].
^a mg/kg × 2; doses given 1 and 5 hours postinfection

Assay [14] concerns Staphylococcus aureus V41. Description: standard agar-dilution assay, MIC. The format is cell-based. The settings on record: Staphylococcus aureus V41, penicillin resistant strain. As to the method:
as §1
^b Penicillinresistant strain

A word on the ED50: it is the midpoint of the dose-response relation. Turning to `CCC1OC(=O)CC(O)C(C)C(OC2OC(C)C(OC3CC(C)(O)C(OC(C)=O)C(C)O3)C(N(C)C)C2OC(C)=O)C(CC=O)CC(C)C(=O)C=CC(C)=CC1COC(C)=O` (stereo not shown) [Compound 1, 2',4",23-Tri-O-Acetyl-DMT], the “MIC (minimal inhibitory concentration)” value was 1.56 against Mycoplasma hyorhinis; 3.12 in the assay on Staphylococcus aureus; 0.78 against Streptococcus sp. 80; 0.39 in the assay with Mycoplasma gallisepticum; 12.5 in assay [1]; 25 in assay [2]. For the same molecule, the “MIC (minimal inhibitory concentration)” value turned out to be 0.78 against Mycoplasma synoviae; 1 in assay [3]; 1 in [4]; 1 against Streptococcus Group 9960; 2 in assay [5]; 1 in [6]. The “MIC (minimal inhibitory concentration)” value in assay [7] is on record as 0.5; in assay [8], 0.125; in assay [9] it was 1; in [10] it was 2; in [11], 16; in assay [12], 16. In [14], the “MIC (minimal inhibitory concentration)” value is reported as 0.5. Further, the ED50 in assay [13] turned out to be 179 mg/kg.
For `CCC1OC(=O)CC(O)C(C)C(OC2OC(C)C(OC3CC(C)(O)C(OC(=O)Cc4ccccc4)C(C)O3)C(N(C)C)C2O)C(CC=O)CC(C)C(=O)C=CC(C)=CC1COC(=O)Cc1ccccc1` (stereo not shown) [Compound 6, 23,4"-Di-O-Phenylacetyl-DMT], the “MIC (minimal inhibitory concentration)” value against Mycoplasma hyorhinis was 0.195; in the assay with Staphylococcus aureus it was 1.56; against Streptococcus sp. 80, 0.39; in the assay on Mycoplasma gallisepticum, ≤ 0.048; in [1], 50; in assay [2] it was > 50. Moreover, the “MIC (minimal inhibitory concentration)” value against Mycoplasma synoviae was 0.39; in assay [3], 0.5; in assay [4], 1; against Streptococcus Group 9960, 0.5; in assay [5], 1; in assay [6] it was 1. Moreover, the “MIC (minimal inhibitory concentration)” value in assay [7] stood at 0.25; in assay [8], 0.125; in assay [9], 1; in assay [10], 1; in [11], 64; in assay [12], 64. Also, in assay [14], the “MIC (minimal inhibitory concentration)” value stood at 1.
Take `CCC(=O)OC1C(C)OC(OC2C(C)OC(OC3C(CC=O)CC(C)C(=O)C=CC(C)=CC(COC(=O)C(Cl)(Cl)Cl)C(CC)OC(=O)CC(O)C3C)C(OC(C)=O)C2N(C)C)CC1(C)O` (stereo not shown) [Compound 14, 2'-O-Acetyl-4"-O-Propionyl-23-O-Trichloroacetyl-DMT]: the “MIC (minimal inhibitory concentration)” value with Mycoplasma hyorhinis is recorded as 6.25; against Staphylococcus aureus it was 1.56; in the assay on Streptococcus sp. 80, 1.56; in the assay on Mycoplasma gallisepticum, 0.39; in [1], 12.5; in assay [2], 25. Moreover, the “MIC (minimal inhibitory concentration)” value against Mycoplasma synoviae is given as 0.195; in assay [3], 2; in assay [4], 0.5; against Streptococcus Group 9960, 1; in assay [5], 2; in assay [6], 0.5. The “MIC (minimal inhibitory concentration)” value in assay [7] was 0.5; in [8], 0.125; in [9], 1; in [10], 2; in assay [11] it was 8; in assay [12], 8. For the same molecule, the “MIC (minimal inhibitory concentration)” value in [14] was 1.
Take `CCC(=O)OC1CC(=O)OC(CC)C(COC(=O)C(Cl)(Cl)Cl)C=C(C)C=CC(=O)C(C)CC(CC=O)C(OC2OC(C)C(OC3CC(C)(O)C(OC(=O)CC)C(C)O3)C(N(C)C)C2OC(C)=O)C1C` (stereo not shown) [Compound 15, 2'-O-Acetyl-3,4"-Di-O-Propionyl-23-O-Trichloroacetyl-DMT]: the “MIC (minimal inhibitory concentration)” value was found to be 3.12 with Mycoplasma hyorhinis; 1.56 against Staphylococcus aureus; 1.56 in the assay on Streptococcus sp. 80; 0.39 in the assay with Mycoplasma gallisepticum; 50 in [1]; 50 in [2]. In addition, the “MIC (minimal inhibitory concentration)” value was 0.39 in the assay on Mycoplasma synoviae; 2 in assay [3]; 0.5 in [4]; 1 against Streptococcus Group 9960; 1 in assay [5]; 0.5 in assay [6]. Besides, the “MIC (minimal inhibitory concentration)” value in assay [7] is listed as 0.5; in assay [8], 0.06; in [9], 0.5; in assay [10], 1; in [11], 32; in [12], 64. Moreover, the “MIC (minimal inhibitory concentration)” value in assay [14] was 1.
Regarding `CCC(=O)OC1CC(=O)OC(CC)C(CO)C=C(C)C=CC(=O)C(C)CC(CC=O)C(OC2OC(C)C(OC3CC(C)(O)C(OC(=O)CC)C(C)O3)C(N(C)C)C2O)C1C` (stereo not shown) [Compound 17, 3,4"-Di-O-Propionyl-DMT], the “MIC (minimal inhibitory concentration)” value against Mycoplasma hyorhinis is 3.12; against Staphylococcus aureus, 1.56; in the assay with Streptococcus sp. 80, 0.78; in the assay with Mycoplasma gallisepticum, 0.097; in assay [1], 25; in [2] it was 50. For the same molecule, the “MIC (minimal inhibitory concentration)” value against Mycoplasma synoviae came to 0.195; in [3] it was 1; in [4], 0.5; against Streptococcus Group 9960, 1; in assay [5], 1; in assay [6], 0.5. Moreover, the “MIC (minimal inhibitory concentration)” value in [7] turned out to be 0.25; in assay [8], 0.06; in [9] it was 0.5; in assay [10] it was 1; in [11], 8; in [12], 16. In [14], the “MIC (minimal inhibitory concentration)” value is recorded as 1.
Consider `CCC1OC(=O)CC(O)C(C)C(OC2OC(C)C(OC3CC(C)(O)C(OC(=O)CC(C)C)C(C)O3)C(N(C)C)C2O)C(CC=O)CC(C)C(=O)C=CC(C)=CC1C` (stereo not shown) [Compound 19, 4"-O-Isovaleryl-DMOT], for which the “MIC (minimal inhibitory concentration)” value against Mycoplasma hyorhinis turned out to be 0.39; against Staphylococcus aureus it was 3.12; in the assay with Streptococcus sp. 80, 0.195; against Mycoplasma gallisepticum, 0.195; in [1], 6.25; in assay [2], 12.5. Further, the “MIC (minimal inhibitory concentration)” value against Mycoplasma synoviae was 0.39; in assay [3] it was 1; in [4], 1; against Streptococcus Group 9960, 1; in assay [5], 1; in assay [6], 1. Moreover, the “MIC (minimal inhibitory concentration)” value came out at 0.25 in assay [7]; 0.03 in [8]; 1 in assay [9]; 1 in [10]; 8 in [11]; 8 in [12]. Moreover, the “MIC (minimal inhibitory concentration)” value in [14] stood at 1.
